In ChEMBL document CHEMBL6182875, “Cinerols L-R, Anti-inflammatory Meroterpenoids from the Marine Sponge Dysidea cinerea” (J Nat Prod, 2025):
Calls of active or inactive are those of the source. No cut-off for these calls is given here.

Legend:
[1] = test system: RAW264.7; test: Cytotoxicity against mouse RAW264.7 cells assessed as effect on cell viability at 2.5 to 20 uM measured after 24 hrs by CCK8 assay; format: toxicity, cell-based; details: raw264.7, 24 h, dose 2.5-20 µM
[2] = test system: RAW264.7; test: Antiinflammatory activity against mouse RAW264.7 cells assessed as inhibition of LPS-induced TNF-alpha production pretreated for 2 hrs followed by LPS stimulation for 24 hrs by ELISA; format: functional, cell-based; details: dose 2.5-20 µM, time 26.0 hrs
[3] = test system: RAW264.7; test: Antiinflammatory activity against mouse RAW264.7 cells assessed as inhibition of LPS-induced IL-6 production pretreated for 2 hrs followed by LPS stimulation for 24 hrs by ELISA; format: functional, cell-based; details: dose 2.5-20 µM, time 26.0 hrs
[4] = test system: RAW264.7; test: Antiinflammatory activity against mouse RAW264.7 cells assessed as inhibition of LPS-induced PGE2 production pretreated for 2 hrs followed by LPS stimulation for 24 hrs by ELISA; format: functional, cell-based; details: dose 2.5-20 µM, time 26.0 hrs
[5] = test system: RAW264.7; test: Antiinflammatory activity against mouse RAW264.7 cells assessed as inhibition of LPS-induced NO production pretreated for 2 hrs followed by LPS stimulation for 24 hrs by ELISA; format: functional, cell-based; details: dose 2.5-20 µM, time 26.0 hrs
[6] = test system: RAW264.7; test: Inhibition of NF-kappaB signaling pathway in mouse RAW264.7 cells assessed as decrease in NF-kappaB p65 phosphorylation at Ser536 residue at 2.5 to 5 uM pretreated for 1 hr followed by LPS stimulation for 25 mins by western blot analysis; format: cell-based; details: dose 2.5-5 µM, time 85.0 min
[7] = test system: RAW264.7; test: Inhibition of NF-kappaB signaling pathway in mouse RAW264.7 cells assessed as decrease in IkappaBalpha phosphorylation at Ser32 residue at 2.5 to 5 uM pretreated for 1 hr followed by LPS stimulation for 25 mins by western blot analysis; format: cell-based; details: dose 2.5-5 µM, time 85.0 min
[8] = test system: RAW264.7; test: Antiinflammatory activity against mouse RAW264.7 cells assessed as inhibition of LPS-induced COX-2 protein expression at 2.5 to 5 uM pretreated for 1 hr followed by LPS stimulation for 25 mins by western blot analysis; format: functional, cell-based; details: dose 2.5-5 µM, time 85.0 min
[9] = test system: RAW264.7; test: Inhibition of MAPK signaling pathway in mouse RAW264.7 cells assessed as decrease in ERK1/2 phosphorylation at 2.5 to 5 uM pretreated for 1 hr followed by LPS stimulation for 25 mins by western blot analysis; format: cell-based; details: dose 2.5-5 µM, time 85.0 min
[10] = test system: RAW264.7; test: Inhibition of MAPK signaling pathway in mouse RAW264.7 cells assessed as decrease in p38 phosphorylation at 2.5 to 5 uM pretreated for 1 hr followed by LPS stimulation for 25 mins by western blot analysis; format: cell-based; details: dose 2.5-5 µM, time 85.0 min
[11] = test system: RAW264.7; test: Inhibition of MAPK signaling pathway in mouse RAW264.7 cells assessed as decrease in JNK phosphorylation at 2.5 to 5 uM pretreated for 1 hr followed by LPS stimulation for 25 mins by western blot analysis; format: cell-based; details: dose 2.5-5 µM, time 85.0 min

`CC1=CCC[C@H]2[C@](C)(CC3=CC(=O)C=C(NCCO)C3=O)[C@@H](C)CC[C@]12C` was tested, and the Activity [1] was “Non-toxic”.
With `C=C1CCC[C@H]2[C@](C)(Cc3cc(O)cc(C(C)=O)c3O)[C@@H](C)CC[C@]12C` the Activity [1] was “Non-toxic”, the Activity [2] was “Dose-dependent-effect” and the Activity [3] was “Dose-dependent-effect”. For the same compound, the Activity [4] was “Dose-dependent-effect”, the Activity [5] was “Dose-dependent-effect” and the inhibition [6] was “Active”. For the same compound, the inhibition [7] was “Active”, the Activity [8] was “Active” and the inhibition [9] was “Active”. The inhibition [10] was “Active” and the inhibition [11] was “Active”.
For `CC1=CCC[C@H]2[C@](C)(CC3=CC(=O)C=C(N(C)CCO)C3=O)[C@@H](C)CC[C@]12C`, the Activity [1] was “Non-toxic”.
`C[C@H]1CC[C@@]2(C)[C@@H](CC[C@@H](O)[C@@]2(C)O)[C@]1(C)Cc1cc(O)cc2nc3n(c12)CCC3` was tested, and the Activity [1] was “Non-toxic”.
In the case of `CC1=CCC[C@H]2[C@](C)(CC3=CC(=O)C(NCCO)=CC3=O)[C@@H](C)CC[C@]12C`, the Activity [1] is reported as “Non-toxic”.
With `CC(=O)c1cc(O)cc(C[C@]2(C)[C@@H](C)CC[C@]3(C)C(C)=CCC[C@@H]23)c1O` the Activity [1] was “Non-toxic”.
For `CC1=CCC[C@H]2[C@](C)(Cc3cc4c(cc3O)[n+](CCS(=O)(=O)[O-])c3n4CCC3)[C@@H](C)CC[C@]12C`, the Activity [1] was “Non-toxic”.
